Several values for one entry are separate records, joined by “and”; a condition that tells them apart may be missing. Equal entries are not always repeated.
Target: T1, KDM4A F185A (asKDM4A) in HEK293T cells (Homo sapiens, UniProt O75164, F185A)
T1 construct: we generated the F185A mutation in full-length KDM4A carrying all of the functional domains; host or cells: HEK293T
T1 sequence (O75164 1-1064 F185A): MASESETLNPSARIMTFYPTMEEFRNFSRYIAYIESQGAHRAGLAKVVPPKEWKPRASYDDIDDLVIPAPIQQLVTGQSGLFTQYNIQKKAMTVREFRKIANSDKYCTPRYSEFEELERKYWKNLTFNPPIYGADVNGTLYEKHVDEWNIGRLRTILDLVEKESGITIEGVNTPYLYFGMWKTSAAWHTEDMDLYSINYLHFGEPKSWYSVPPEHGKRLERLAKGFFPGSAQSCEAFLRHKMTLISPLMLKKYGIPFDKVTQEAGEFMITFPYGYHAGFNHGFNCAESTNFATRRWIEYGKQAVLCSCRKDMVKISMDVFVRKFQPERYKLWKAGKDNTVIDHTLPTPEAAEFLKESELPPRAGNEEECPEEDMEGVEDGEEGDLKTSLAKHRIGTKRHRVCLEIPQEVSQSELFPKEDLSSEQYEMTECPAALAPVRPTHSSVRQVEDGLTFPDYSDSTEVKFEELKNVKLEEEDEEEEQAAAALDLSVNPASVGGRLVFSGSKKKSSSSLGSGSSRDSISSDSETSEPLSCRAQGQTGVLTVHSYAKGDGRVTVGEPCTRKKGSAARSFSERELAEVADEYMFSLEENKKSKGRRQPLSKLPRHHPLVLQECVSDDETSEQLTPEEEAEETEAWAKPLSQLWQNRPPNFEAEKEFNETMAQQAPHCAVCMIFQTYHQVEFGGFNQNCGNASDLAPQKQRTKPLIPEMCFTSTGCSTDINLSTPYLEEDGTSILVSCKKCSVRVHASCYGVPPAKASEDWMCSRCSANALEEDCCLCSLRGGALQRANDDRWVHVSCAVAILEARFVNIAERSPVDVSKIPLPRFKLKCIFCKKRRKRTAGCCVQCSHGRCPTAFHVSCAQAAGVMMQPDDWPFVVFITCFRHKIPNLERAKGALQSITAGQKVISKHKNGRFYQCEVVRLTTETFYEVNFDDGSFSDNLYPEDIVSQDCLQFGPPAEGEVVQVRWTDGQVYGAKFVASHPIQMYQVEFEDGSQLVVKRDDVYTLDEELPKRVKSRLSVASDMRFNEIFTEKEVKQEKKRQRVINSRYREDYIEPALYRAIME
Assay: Histone extraction, digestion and tandem mass spectrometry (relative abundance of histone modifications)
Format: cell-based
Settings: peptide form; samples 6A_1, 6A_2
Procedure: HEK293T cells were transiently transfected with asKDM4A and treated with varying concentrations of 6A or 6B. […] To further confirm the activity of the enzyme–inhibitor pair, we performed tandem mass spectrometry of tryptic histones isolated from HEK293T cells expressing asKDM4A in the presence or absence of 100 μM 6A. […]
22. Histone extraction, digestion and tandem mass spectrometry
HEK 293-T cells (ATCC CRL-1573) were plated into 6-well plates (Corning) in DMEM (Corning) supplemented with 10% FBS (Corning) and 1X Antibiotic/Antimycin
(Penicillin/Streptomycin/Fungiozone) (Cytiva HyClone) in an incubator held at 37 °C with 5%
CO2. At 75% confluency, cells were transfected with 2.5 µg KDM4A F185A or Empty Vector with 5µg Thermo Turbofect (FERR0531). After 4 hours, the media was washed and 200 µM of 6A or equivalent volume of DMSO was added and left to incubate at 37 °C for 24 hours. Cells were then washed with 1X PBS (Corning) followed by trypsinization (Gibco TrypLE™ Express Enzyme). Collected cells were centrifuged at 3000xg for 3 minutes, followed by washing with 1X PBS and centrifuged for an additional 3000xg for 3 minutes. Histone proteins were extracted from the pellet as described by25 to ensure good-quality identification and quantification of single histone marks. Briefly, cell pellets were dissolved in 100 µL of cold 0.2 M H2SO4 and incubated for 2 hours rotating in a cold room (4 °C). Aliquots were then centrifuged at 3400xg for 5 minutes […]
at 4 °C and the supernatant was added to a fresh tube. 100% cold TCA was then added to a final volume of 33% volume/volume TCA/supernatant and left to incubate for 1 hour in a cold room (4 °C). Samples were then centrifuged at 3400xg for 5 min at 4 °C and the supernatant was discarded. The precipitate was then washed with cold acetone/0.1% HCl and centrifuged at 3400xg for 5 minutes at 4 °C. The supernatant was discarded, and the precipitate was washed with cold acetone and centrifuged at 3400xg for 5 minutes at 4 °C. The supernatant was discarded, and the pellet was dried using a vacuum centrifuge.
The pellet was dissolved in 50 mM ammonium bicarbonate, pH 8.0, and histones were subjected to derivatization using 5 µL of propionic anhydride and 14 µL of ammonium hydroxide (all Sigma Aldrich) to balance the pH at 8.0. The mixture was incubated for 15 min and the procedure was repeated. Histones were then digested with 1 µg of sequencing grade trypsin (Promega) diluted in 50mM ammonium bicarbonate (1:20, enzyme:sample) overnight at room temperature.
Derivatization reaction was repeated to derivatize peptide N-termini. The samples were dried in a […]
Sample desalting: Prior to mass spectrometry analysis, samples were desalted using a 96-well plate filter (Orochem) packed with 1 mg of Oasis HLB C-18 resin (Waters). Briefly, the samples were resuspended in 100 µl of 0.1% TFA and loaded onto the HLB resin, which was previously equilibrated using 100 µl of the same buffer. After washing with 100 µl of 0.1% TFA, the samples were eluted with a buffer containing 70 µl of 60% acetonitrile and 0.1% TFA and then dried in a […]
LC-MS/MS Acquisition and Analysis: Samples were resuspended in 10 µl of 0.1% TFA and loaded onto a Dionex RSLC […] (Thermo Scientific), coupled online with an Orbitrap Fusion Lumos (Thermo Scientific). Chromatographic separation was performed with a two-column system, consisting of a C-18 trap cartridge (300 µm ID, 5 mm length) and a picofrit analytical column (75 µm ID, 25 cm length) packed in-house with reversed-phase Repro-Sil Pur C18-AQ 3 µm resin. Peptides were separated using a 30 min gradient from 1-30% buffer B (buffer A: 0.1% formic acid, buffer B: 80% acetonitrile + 0.1% formic acid) at a flow rate of 300 nl/min.
The mass spectrometer was set to acquire spectra in a data-independent acquisition (DIA) mode.

CCCCCCCCOC(=O)C(=O)NC(CC(C)C)C(=O)O [6A, L-Leu octyl-ester NOG]
Relative abundance, H3_9_17 K9me1S10ph: 7.8% and 0.0004%
Relative abundance, H3_9_17 K9me1S10phK14ac: 0.0342% and 0.0031%
Relative abundance, H3_9_17 K9me2: 22.1% and 17.2%
Relative abundance, H3_9_17 K9me2K14ac: 19.6% and 31.3%
Relative abundance, H3_9_17 K9me2S10ph: 0.317% and 0.0091%
Relative abundance, H3_9_17 K9me2S10phK14ac: 0.125% and 0.1%
Relative abundance, H3_9_17 K9me3: 10.5% and 10.1%
Relative abundance, H3_9_17 K9me3K14ac: 4.9% and 8.1%
Relative abundance, H3_9_17 K9me3S10ph: 0.178% and 0.2%
Relative abundance, H3_9_17 K9me3S10phK14ac: 0.0363% and 0.177%
Relative abundance, H3_9_17 K14ac: 8.4% and 11.5%
Relative abundance, H3_9_17 S10ph: 0.0768% and 0.0083%
Relative abundance, H3_9_17 S10phK14ac: 0.0443% and 0.0008%
Relative abundance, H3_9_17 unmod: 9.8% and 11.8%
Relative abundance, H3_18_26 K18ac: 0.249% and 0.34%
Relative abundance, H3_18_26 K18acK23ac: 0.647% and 0.316%
Relative abundance, H3_18_26 K18me1: 0.0% and 0.0012%
Relative abundance, H3_18_26 K18me1K23me1: 0.0%
Relative abundance, H3_18_26 K23ac: 50.6% and 44.0%
Relative abundance, H3_18_26 K23me1: 0.0% and 0.0005%
Relative abundance, H3_18_26 unmod: 48.5% and 55.3%
Relative abundance, H3_27_40 K27ac: 0.0296% and 0.0%
Relative abundance, H3_27_40 K27me1: 3.2% and 3.4%
Relative abundance, H3_27_40 K27me1K36me1: 5.3% and 3.7%
Relative abundance, H3_27_40 K27me1K36me2: 8.3% and 9.8%
Relative abundance, H3_27_40 K27me1K36me3: 1.2% and 1.9%
Relative abundance, H3_27_40 K27me1S28ph: 0.0041% and 0.002%
Relative abundance, H3_27_40 K27me2: 15.4% and 12.9%
Relative abundance, H3_27_40 K27me2K36me1: 9.5% and 8.5%
Relative abundance, H3_27_40 K27me2K36me2: 22.1% and 30.2%
Relative abundance, H3_27_40 K27me2S28ph: 0.0281% and 0.0017%
Relative abundance, H3_27_40 K27me3: 11.7% and 6.9%
Relative abundance, H3_27_40 K27me3K36me1: 3.6% and 2.6%
Relative abundance, H3_27_40 K27me3K36me2: 3.5% and 4.6%
Relative abundance, H3_27_40 K27me3S28ph: 0.0216% and 0.0012%
Relative abundance, H3_27_40 K36me1: 1.9% and 1.7%
Relative abundance, H3_27_40 K36me2: 3.2% and 4.8%
Relative abundance, H3_27_40 K36me3: 5.9% and 4.4%
Relative abundance, H3_27_40 S28ph: 0.0007% and 0.1%
Relative abundance, H3_27_40 unmod: 5.0% and 4.6%
Relative abundance, H3_41_49 Y41ph: 0.001% and 0.173%
Relative abundance, H3_41_49 unmod: 100.0% and 99.8%
Relative abundance, H3_54_63 K56ac: 0.0%
Relative abundance, H3_54_63 K56me2: 0.0%
Relative abundance, H3_54_63 K56me3: 0.0%
Relative abundance, H3_73_83 K79ac: 0.0%
Relative abundance, H3_73_83 K79me3: 4.6% and 0.0%
Relative abundance, H4_4_17 K5ac: 1.3% and 2.1%
Relative abundance, H4_4_17 K5acK8ac: 0.3% and 1.0%
Relative abundance, H4_4_17 K5acK8acK12ac: 0.261% and 1.3%
Relative abundance, H4_4_17 K5acK8acK12acK16ac: 0.0284% and 2.6%
Relative abundance, H4_4_17 K5acK8acK16ac: 0.279% and 0.9%
Relative abundance, H4_4_17 K5acK12ac: 0.8% and 3.1%
Relative abundance, H4_4_17 K5acK12acK16ac: 0.471% and 3.1%
Relative abundance, H4_4_17 K5acK16ac: 0.7% and 2.5%
Relative abundance, H4_4_17 K8ac: 1.3% and 1.4%
Relative abundance, H4_4_17 K8acK12ac: 0.211% and 0.6%
Relative abundance, H4_4_17 K8acK12acK16ac: 1.2% and 4.4%
Relative abundance, H4_4_17 K8acK16ac: 1.5% and 3.9%
Relative abundance, H4_4_17 K12ac: 2.8% and 4.2%
Relative abundance, H4_4_17 K12acK16ac: 3.3% and 7.5%
Relative abundance, H4_4_17 K16ac: 24.2% and 24.4%
Relative abundance, H4_4_17 unmod: 61.3% and 37.2%
Relative abundance, H4_20_23 K20ac: 0.3% and 1.3%
Relative abundance, H4_20_23 K20me1: 48.4% and 36.1%
Relative abundance, H4_20_23 K20me3: 3.5% and 3.6%
Relative abundance, H4_20_23 unmod: 37.7% and 34.8%
Relative abundance, H4_24_35 unmod: 100.0%
Relative abundance, H4_40_45 K44ac: 0.0025% and 0.039%
Relative abundance, H4_40_45 unmod: 100.0%
Relative abundance, H4_79_92 unmod: 100.0%
Relative abundance, H33_27_40 K27ac: 0.0069% and 0.0%
Relative abundance, H33_27_40 K27me1: 3.6% and 2.5%
Relative abundance, H33_27_40 K27me1K36me1: 4.8% and 3.5%
Relative abundance, H33_27_40 K27me1K36me2: 11.0% and 11.1%
Relative abundance, H33_27_40 K27me1K36me3: 2.1% and 3.4%
Relative abundance, H33_27_40 K27me1S28ph: 0.0023% and 0.024%

Reference: article PMC11783601, “Analogue-Sensitive Inhibition of Histone Demethylases Uncovers Member-Specific Function in Ribosomal Protein Synthesis” (Journal of the American Chemical Society, 2025)
